{"source": "ChEMBL document CHEMBL1150029", "about": "“QSAR of HIV inhibitors” (Bioorg Med Chem Lett, 1992)", "note": "Several values for one entry are separate records, joined by “and”; a condition that tells them apart may be missing. Equal values may be shown once. Activity calls are given as the source filed them. The rule behind the calls is not given here."}
{"system": "ATH-8 cell line", "assay": "Compound was tested for % Protection of ATH8 cells from HIV infection by 2 pM concentration of nucleoside; inactive", "format": "functional, cell-based", "conditions": "Homo sapiens"}
{"compound": "OCC1CCC(n2cnc3c(S)ncnc32)O1", "note": "(stereo unspecified)", "Log": "inactive"}
{"system": "MT4", "assay": "Tested for 50% protection of MT-4 cells from HIV infection", "format": "functional", "conditions": "not given"}
{"compound": "Cc1c(Sc2cccc(C(C)(C)C)c2)n(COCCO)c(=O)[nH]c1=O", "Log 1/C": 4.92}
{"compound": "Cc1c(Sc2cccc(F)c2)n(COCCO)c(=O)[nH]c1=O", "Log 1/C": 5.48}
{"compound": "Cc1ccccc1Sc1c(C)c(=O)[nH]c(=O)n1COCCO", "Log 1/C": 4.15}
{"compound": "Cc1c(Sc2cccc(Cl)c2)n(COCCO)c(=O)[nH]c1=O", "Log 1/C": 4.89}
{"compound": "CC(C)c1c(Sc2ccccc2)n(COCCO)c(=S)[nH]c1=O", "Log 1/C": 7.23}
{"compound": "CC(C)c1c(Sc2ccccc2)n(COCCO)c(=O)[nH]c1=O", "Log 1/C": 7.2}
{"compound": "COc1cccc(Sc2c(C)c(=O)[nH]c(=O)n2COCCO)c1", "Log 1/C": 4.66}
{"compound": "C=CCc1c(Sc2ccccc2)n(COCCO)c(=O)[nH]c1=O", "Log 1/C": 5.6}
{"compound": "Cc1c(Sc2cccc(I)c2)n(COCCO)c(=O)[nH]c1=O", "Log 1/C": 5}
{"compound": "CCCc1c(Sc2ccccc2)n(COCCO)c(=O)[nH]c1=O", "Log 1/C": 5.47}
{"compound": "Cc1c(Sc2cccc(O)c2)n(COCCO)c(=O)[nH]c1=O", "Log 1/C": 4.09}
{"compound": "CCc1c(Sc2ccccc2)n(COCCO)c(=O)[nH]c1=O", "Log 1/C": "6.92 and 6.96"}
{"compound": "Cc1c(Sc2cccc(Br)c2)n(COCCO)c(=O)[nH]c1=O", "Log 1/C": 5.24}
{"compound": "Cc1cc(C)cc(Sc2c(C(C)C)c(=O)[nH]c(=S)n2COCCO)c1", "Log 1/C": 8.3}
{"compound": "Cc1ccc(Sc2c(C)c(=O)[nH]c(=O)n2COCCO)cc1", "Log 1/C": 3.66}
{"compound": "Cc1c(Sc2cccc([N+](=O)[O-])c2)n(COCCO)c(=O)[nH]c1=O", "Log 1/C": 4.47}
{"compound": "Cc1c(Sc2cccc(C(F)(F)F)c2)n(COCCO)c(=O)[nH]c1=O", "Log 1/C": 4.35}
{"compound": "COCc1cccc(Sc2c(C)c(=O)[nH]c(=O)n2COCCO)c1", "Log 1/C": 5.14}
{"compound": "CCc1c(Sc2cc(C)cc(C)c2)n(COCCO)c(=S)[nH]c1=O", "Log 1/C": 8.11}
{"compound": "COC(=O)c1cccc(Sc2c(C)c(=O)[nH]c(=O)n2COCCO)c1", "Log 1/C": 5.1}
{"compound": "CCc1c(Sc2cc(Cl)cc(Cl)c2)n(COCCO)c(=S)[nH]c1=O", "Log 1/C": 7.37}
{"compound": "CCCc1c(Sc2ccccc2)n(COCCO)c(=S)[nH]c1=O", "Log 1/C": 5}
{"compound": "CCc1cccc(Sc2c(C)c(=O)[nH]c(=O)n2COCCO)c1", "Log 1/C": 5.57}
{"compound": "CCc1c(Sc2cc(Cl)cc(Cl)c2)n(COCCO)c(=O)[nH]c1=O", "Log 1/C": 7.85}
{"compound": "Cc1cc(C)cc(Sc2c(C)c(=O)[nH]c(=S)n2COCCO)c1", "Log 1/C": 6.66}
{"compound": "Cc1c(Sc2ccccc2[N+](=O)[O-])n(COCCO)c(=O)[nH]c1=O", "Log 1/C": 3.85}
{"compound": "COc1ccccc1Sc1c(C)c(=O)[nH]c(=O)n1COCCO", "Log 1/C": 4.72}
{"compound": "Cc1cccc(Sc2c(C)c(=O)[nH]c(=O)n2COCCO)c1", "Log 1/C": 5.59}
{"compound": "Cc1c(Sc2cccc(C#N)c2)n(COCCO)c(=O)[nH]c1=O", "Log 1/C": 5}
{"system": "ATH-8 cell line", "assay": "Compound was tested for % Protection of ATH8 cells from HIV infection by 2 pM concentration of nucleoside", "format": "functional, Homo sapiens", "conditions": "not given", "units": {"Log": "%"}}
{"compound": "Nc1nc(Cl)nc2c1ncn2C1CCC(CO)O1", "note": "(stereo unspecified)", "Log": 0}
